Three compounds from patent US20100099564A1, “HERBICIDE COMBINATION COMPRISING DIMETHOXYTRIAZINYL-SUBSTITUTED DIFLUOROMETHANESULFONYLANILIDES” (BAYER CROPSCIENCE AG, priority 2008, published 2010) can be followed below.

Common to all, as to type: in vivo
In one test the test system is Viola tricolor (VIOTR). In words: Post-emergence action, greenhouse pot test, visual scoring: VIOTR. Here is the method: (§1) Seeds or rhizome pieces of mono- and dicotyledonous harmful and useful plants were placed in peat pots (diameter 4 cm) filled with sandy loam and then covered with soil. The pots were kept in a greenhouse under optimum conditions. In addition, harmful plants encountered in paddy rice cultivation were cultivated in pots with a water level 2 cm above the soil surface.
(§2) About three weeks after the start of the cultivation, the test plants were treated at the 2- to 3-leaf stage. The herbicides, formulated as powder or liquid concentrates, were, either alone or in the combinations according to the invention, sprayed in various dosages on to the green parts of the plants using an application rate of 600 l of water/ha (converted). For further cultivation of the plants, the pots were then again kept under optimum conditions in a greenhouse.
(§3) The visual scoring of the herbicidal effects was carried out in intervals up to 21 days after the treatment. Scoring was carried out in percent in comparison to the untreated control plants. 0%=no herbicidal activity, 100%=complete herbicidal activity=complete kill.
(§4) The percentages from the treatments with the herbicides alone (=individual application) and with the combinations according to the invention (=mixtures) were employed to calculate interactions using the method of Colby. When the observed efficacies of the mixtures exceed the formal sum of the values of the tests with individual applications, they also exceed the expected value according to Colby, which is calculated using the formula below (cf. S. R. Colby; in Weeds 15 (1967) pp. 20 to 22):
(§5) Here: • A, B=activity of components A and B in percent at a dosage of a and b g of ai/ha (=gramm of active substance per hectare), respectively. • E=expected value in % at a dosage of a+b g of ai/ha.
(§6) The combinations according to the invention of herbicides from group (A) with herbicides from group (B) were tested on a broad spectrum of important harmful plants (weed grasses, broad-leaved weeds/Cyperaceae) and useful plants: Triticum aestivum (TRZAS), Stellaria media (STEME), Lolium multiflorum (LOLMU), Veronica persica (VERPE), Alopecurus myosuroides (ALOMY), Matricaria inodora (MATIN), Brassica napus (BRSNW), Viola tricolor (VIOTR), Avena fatua (AVEFA), Amaranthus retroflexus (AMARE), Zea mays (ZEAMX), Pharbitis purpurea (PHBPU), Setaria viridis (SETVI), Fallopia (ex Polygonum) convolvulus (POLCO), Echinochloa crusgaffi (ECHCG), Abuthilon theophrasti (ABUTH), Cyperus esculentus (CYPES), Oryza sativa (ORYSA).
(§7) Of particular interest are the results shown in the tables (Tab.) below, where the following key is used: • (1) EPPO code (former Bayer code) for the treated plant (see above) • (2) Time of scoring: DAT (days after treatment) • (3) Component A tested (identifying number) • (4) Component B tested (identifying number) • (5) Dosage component A [g of ai/ha] • (6) Dosage component B [g of ai/ha] • (7) % activity found • (8) E value (calculated according to Colby; see above) • (9) Comments: “SYNERGY” =synergistic interaction (E value<% activity found); “SAFENING”=safener action on useful plant (E value>% activity found)

In the next test the test system is Stellaria media (STEME). Description: Post-emergence action, greenhouse pot test, visual scoring: STEME. As to conditions: 10 DAT. The protocol: as §1, §2, §3, §4, §5, §6, §7
The subject of test [1] is Cyperus esculentus (CYPES). In words: Post-emergence action, greenhouse pot test, visual scoring: CYPES. The following applies: 21 DAT. Here is the method:
as §1, §2, §3, §4, §5

Test [2] relates to Alopecurus myosuroides (ALOMY). Description: Post-emergence action, greenhouse pot test, visual scoring: ALOMY. As to conditions: Alopecurus myosuroides, post-emergence, read-out: % activity found. The protocol:
as §1, §2, §3, §4, §5

The subject of test [3] is Fallopia (ex Polygonum) convolvulus (POLCO). In words: Post-emergence action, greenhouse pot test, visual scoring: POLCO. The following applies: 21 DAT. Here is the method: as §1, §2, §3, §4, §5, §6, §7
The subject of test [4] is Matricaria inodora (MATIN). In words: Post-emergence action, greenhouse pot test, visual scoring: MATIN. The protocol:
as §1, §2, §3, §4, §5

In test [5] the test system is Triticum aestivum (TRZAS). Description: Post-emergence action, greenhouse pot test, visual scoring: TRZAS. As to conditions: Triticum aestivum, post-emergence, read-out: % activity found; for plant injury at 200 g/ha: B 200 g of ai/ha. The protocol: as §1, §2, §3, §4, §5, §6, §7
A further test deals with Avena fatua (AVEFA). In words: Post-emergence action, greenhouse pot test, visual scoring: AVEFA. Here is the method: as §1, §2, §3, §4, §5, §6, §7
The subject of test [6] is Abuthilon theophrasti (ABUTH). In words: Post-emergence action, greenhouse pot test, visual scoring: ABUTH. As to conditions: 21 DAT. Here is the method: as §1, §2, §3, §4, §5, §6, §7
The test system of test [7] is Pharbitis purpurea (PHBPU). Description: Post-emergence action, greenhouse pot test, visual scoring: PHBPU. The following applies: 21 DAT. The protocol:
as §1, §2, §3, §4, §5, §6, §7

In a further test the test system is Veronica persica (VERPE). Description: Post-emergence action, greenhouse pot test, visual scoring: VERPE. Here is the method:
as §1, §2, §3, §4, §5, §6, §7

Test [8] relates to Amaranthus retroflexus (AMARE). In words: Post-emergence action, greenhouse pot test, visual scoring: AMARE. As to conditions: 21 DAT; dose (6) 300. Here is the method: as §1, §2, §3, §4, §5
Test [9] concerns Lolium multiflorum (LOLMU). In words: Post-emergence action, greenhouse pot test, visual scoring: LOLMU. As to conditions: 10 DAT, B 700 g of ai/ha. Here is the method: as §1, §2, §3, §4, §5, §6, §7
For the next test, the system named is Setaria viridis (SETVI). Description: Post-emergence action, greenhouse pot test, visual scoring: SETVI. As to conditions: Setaria viridis, post-emergence, 504 h, 21 DAT, read-out: % activity found. Here is the method: as §1, §2, §3, §4, §5, §6, §7
The next test has as its system Oryza sativa (ORYSA). In words: Post-emergence action, greenhouse pot test, visual scoring: ORYSA. As to conditions: Oryza sativa, post-emergence, 504 h, 21 DAT, read-out: % activity found. The protocol:
as §1, §2, §3, §4, §5, §6, §7

The test system of a further test is Zea mays (ZEAMX). Description: Post-emergence action, greenhouse pot test, visual scoring: ZEAMX. The following applies: Zea mays, post-emergence, read-out: % activity found; for plant injury at 700 g/ha: B 700 g of ai/ha; for plant injury at 2100 g/ha: B 2100 g of ai/ha; for plant injury at 200 g/ha: B 200 g of ai/ha. Here is the method: as §1, §2, §3, §4, §5, §6, §7

The mark [10] stands for this setting: 504 h, 21 DAT, B 700 g of ai/ha.

Read-outs that look alike come from different tables or passages of the source.

For the compound `CCCOCCN(C(=O)CCl)c1c(CC)cccc1CC` [B4-8, 2-chloro-N-(2,6-diethylphenyl)-N-(2-propoxyethyl)acetamide], the “% activity found” value is given as 10% in the test on Viola tricolor (VIOTR) (21 DAT, dose (6) 100); 10% in the test on Stellaria media (STEME) (dose (6) 100); 10% with Stellaria media (STEME) (dose (6) 300); 0% in test [1] (dose (6) 100); 0% in [1] (dose (6) 300); 0% in test [3] (dose (6) 100). The “% activity found” value in test [3] (dose (6) 300) is 20%; in test [4] (10 DAT, dose (6) 100), 0%; in [4] (21 DAT, dose (6) 100), 0%; in the test with Avena fatua (AVEFA) (10 DAT, dose (6) 100) it was 0%; in the test on Avena fatua (AVEFA) (21 DAT, dose (6) 100) it was 0%; with Avena fatua (AVEFA) (21 DAT, dose (6) 300) it was 30%. Moreover, the “% activity found” value in test [6] (dose (6) 100) is given as 0%; in test [6] (dose (6) 300), 0%; in [7] (dose (6) 100), 0%; in [7] (dose (6) 300), 0%; with Veronica persica (VERPE) (10 DAT, dose (6) 100) it was 0%; in the test with Veronica persica (VERPE) (10 DAT, dose (6) 300), 0%. Further, the “% activity found” value came to 0% in the test with Veronica persica (VERPE) (21 DAT, dose (6) 100); 0% with Veronica persica (VERPE) (21 DAT, dose (6) 300); 20% in [8]. Besides, in test [2] (240 h, 10 DAT, B 100 g of ai/ha), the pest or weed control at 100 g/ha was determined as 10%. Moreover, the plant injury at 300 g/ha in [5] (240 h, 10 DAT, B 300 g of ai/ha) turned out to be 10%.
As for `CCC(=O)Nc1ccc(Cl)c(Cl)c1` [B3-8, N-(3,4-dichlorophenyl)propanamide], the “% activity found” value in the test on Viola tricolor (VIOTR) (21 DAT, B 700 g of ai/ha) came out at 60%; in the test with Viola tricolor (VIOTR) (21 DAT, B 2100 g of ai/ha), 70%; in [1] (B 700 g of ai/ha) it was 0%; in test [1] (B 2100 g of ai/ha), 0%; in [3] (B 700 g of ai/ha), 50%; in test [9], 0%. Moreover, the “% activity found” value came out at 0% in [4] (10 DAT, B 700 g of ai/ha); 0% in [4] (10 DAT, B 2100 g of ai/ha); 0% in test [4] (21 DAT, B 700 g of ai/ha); 0% in test [4] (21 DAT, B 2100 g of ai/ha); 20% with Avena fatua (AVEFA) (10 DAT, B 700 g of ai/ha); 0% in the test on Avena fatua (AVEFA) (21 DAT, B 700 g of ai/ha). Also, the “% activity found” value turned out to be 10% with Avena fatua (AVEFA) (21 DAT, B 2100 g of ai/ha) and 40% in [7] (B 2100 g of ai/ha). For the same compound, the pest or weed control at 700 g/ha in test [2] (setting [10]) came to 0%. For the same compound, the pest or weed control at 2100 g/ha is 20% in [2] (504 h, 21 DAT, B 2100 g of ai/ha) and 80% in the test on Setaria viridis (SETVI) (B 2100 g of ai/ha). Also, the plant injury at 700 g/ha came to 0% in the test with Oryza sativa (ORYSA) (B 700 g of ai/ha); 10% in [5] (setting [10]); 0% with Zea mays (ZEAMX) (240 h, 10 DAT); 0% in the test on Zea mays (ZEAMX) (504 h, 21 DAT). In addition, the plant injury at 2100 g/ha in the test with Oryza sativa (ORYSA) (B 2100 g of ai/ha) stood at 0%; in the test on Zea mays (ZEAMX) (240 h, 10 DAT), 0%; in the test on Zea mays (ZEAMX) (504 h, 21 DAT), 0%.
For `CN(C(=O)COc1nc2ccccc2s1)c1ccccc1` [B3-4, 2-(2-benzothiazolyloxy)-N-methyl-N-phenylacetamide], the “% activity found” value with Viola tricolor (VIOTR) (10 DAT, B 200 g of ai/ha) is given as 0%; with Viola tricolor (VIOTR) (10 DAT, B 600 g of ai/ha), 0%; in the test on Stellaria media (STEME) (B 200 g of ai/ha), 10%; in test [1] (B 200 g of ai/ha), 0%; in test [1] (B 600 g of ai/ha), 0%; in test [3] (B 200 g of ai/ha), 0%. In addition, the “% activity found” value in [3] (B 600 g of ai/ha) is 0%; in [4] (10 DAT, B 200 g of ai/ha) it was 0%; in test [4] (10 DAT, B 600 g of ai/ha) it was 0%; in test [4] (21 DAT, B 200 g of ai/ha), 0%; in [4] (21 DAT, B 600 g of ai/ha), 20%; with Avena fatua (AVEFA) (21 DAT, B 200 g of ai/ha), 0%. Also, the “% activity found” value in test [6] (B 200 g of ai/ha), in test [6] (B 600 g of ai/ha) and in test [7] (B 200 g of ai/ha) was 0% throughout. Moreover, the pest or weed control at 200 g/ha with Setaria viridis (SETVI) (B 200 g of ai/ha) is 30%. The plant injury at 600 g/ha in the test with Oryza sativa (ORYSA) (B 600 g of ai/ha) was 20%; in the test on Zea mays (ZEAMX) (504 h, 21 DAT, B 600 g of ai/ha) it was 10%. Also, the plant injury at 200 g/ha in test [5] (240 h, 10 DAT) is 10%; in [5] (504 h, 21 DAT) it was 0%; with Zea mays (ZEAMX) (240 h, 10 DAT) it was 0%; in the test on Zea mays (ZEAMX) (504 h, 21 DAT), 0%.
